Laboratory results reported in patent US9446047B2, “Substituted 2,3-dihydro-1H-inden-1-one retinoic acid-related orphan nuclear receptor antagonists for treating multiple sclerosis” (Arrien Pharmaceuticals LLC, priority 2013, dated 2016).

Tests used:
[1] = molecular target: T1, RORγ-LBD (RORγt) (Homo sapiens, UniProt P51449); assay: TR-FRET RORγt Binding Assay; conditions: 6-His(GST)RORγ-LBD, SRC1_2 peptide, read-out: RORγt Binding
T1 construct: the 6-His-(GST) RORγ-LBD was used which expressed and purified from baculovirus infected Sf-21 insect cells; made in house; host or cells: baculovirus-infected Sf-21 insect cells
T1 sequence (P51449 269-508 limits assumed): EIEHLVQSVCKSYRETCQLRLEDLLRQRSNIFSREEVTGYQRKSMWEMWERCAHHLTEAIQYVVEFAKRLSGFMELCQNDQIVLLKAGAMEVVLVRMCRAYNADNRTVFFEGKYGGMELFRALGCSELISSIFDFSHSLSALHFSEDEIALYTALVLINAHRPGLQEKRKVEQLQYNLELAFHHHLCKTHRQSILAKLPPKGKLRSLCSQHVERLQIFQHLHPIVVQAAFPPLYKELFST
Method: TR-FRET RORγt Binding Assay: RORγ-LBD contains a 6-His and GST tag peptide from SRC1-2 an aminoterminal biotinyl-[…] was employed and the 6-His-(GST) RORγ-LBD was used which expressed and purified from baculovirus infected Sf-21 insect cells from Invitrogen and purified using glutathione sepharose. […] The peptide binding due to dose-curves of compounds was added the 0.1% DMSO. Fluorescence at wavelength 340 nm was read in each well of […] using an Envision fluorescence reader in Time Resolved mode after overnight incubation at 4° C.

[2] = molecular target: T2, RORγt (Homo sapiens, UniProt P51449); assay: RORγt-activated IL-17A Prom/LUCPorter HEK 293 cells luciferase reporter assay; assay type: cell-based; conditions: IL-17A Prom/LUCPorter HEK 293 cells transfected with RORγt, 16 h; read-out: RORγt Cell Specific
T2 construct: host or cells: IL-17A Prom/LUCPorter HEK 293 cell line (IMGENEX, IML-301)
T2 sequence (P51449 1-497 isoform P51449-2): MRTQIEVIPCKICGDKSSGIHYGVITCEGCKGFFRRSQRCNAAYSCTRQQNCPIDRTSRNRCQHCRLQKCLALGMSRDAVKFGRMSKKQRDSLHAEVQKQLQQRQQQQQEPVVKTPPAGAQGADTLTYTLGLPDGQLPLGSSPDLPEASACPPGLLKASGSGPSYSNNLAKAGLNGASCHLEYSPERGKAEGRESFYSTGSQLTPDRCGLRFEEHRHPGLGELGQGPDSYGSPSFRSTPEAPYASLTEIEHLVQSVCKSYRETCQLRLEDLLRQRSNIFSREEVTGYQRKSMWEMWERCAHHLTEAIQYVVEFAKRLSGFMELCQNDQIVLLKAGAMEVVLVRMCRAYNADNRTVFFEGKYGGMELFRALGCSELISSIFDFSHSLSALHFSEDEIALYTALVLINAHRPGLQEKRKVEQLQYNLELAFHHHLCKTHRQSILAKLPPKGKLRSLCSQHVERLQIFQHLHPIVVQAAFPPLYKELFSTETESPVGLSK
Method: Antagonistic (or inverse agonistic) effects of the test compounds on the RORγt-activated IL-17A Prom/LUCPorter™ HEK 293 cells were analyzed and IC50 of each compound was evaluated. […] Luciferase activity was analyzed using the luciferase reporter assay reagent (IMGENEX, LS100). The data were analyzed using Excel and Prism software. Percent activity was defined as 100×(1−(Well−Control A)/(Control B−Control A)), where Control A was the wells containing cells transfected with RORγt and Control B was the wells containing non-transfected cells. Both Controls A and B were treated with vehicle alone.

[3] = test system: IL-17 release from CD4+ T cells; assay: Cytokine IL-17 estimation by HTRF, IL-17 release from CD4+ T cells; assay type: cell-based; conditions: Homo sapiens, IL-17 release from CD4+ T cells, HTRF, read-out: IL-17 Inhibition
Text: The assay was designed to assess the potency of test compounds on IL-17 cytokine release from CD4+ T cells. In order to aid in the identification of potent inhibitors, the IC50's determined for the test compounds IL-17 release from CD4+ T cells through the generation of 10 point Dose Response Curves (DRC). Assay methods used to quantify IL-17 secretion is HTRF (Homogenous Time Resolved Fluorescence). IL-17 secreted is detected by anti-IL-17 MAb labeled with XL665, the second MAb labeled with Cryptate, which binds to specific epitopes of human IL-17. Upon close proximity of both acceptor and donor energy transfer (FRET) occurs. This technique has been further enhanced by using long-lived labels combined with the detection on a time-resolved fluorescence basis, allowing […] of prompt fluorescence interferences.
The assay was performed according to manufacturer's instruction. All the reagents were reconstituted according to instructions provided. The reagents were dispensed into a half area 96-well plate in the following order: […] or sample, IL-17 MAbXL665 and 5 μL IL-17 Cryptate. For the negative control, the standard or sample is replaced by […]. The plate is covered with a plate sealer and incubated at rt for 2 h. Following incubation, the plate sealer is removed and the plate is read using HTRF protocol on Envision Microplate reader. All of the data analysis was carried out using Microsoft Excel (2010) and IC50 was determined using GraphPad Prism 4 software. % Inhibition of the test compounds were determined utilizing the following formula: % Inhibition=100−(100*(Average Test Compound Counts−Average Negative Control Counts)/(Average Positive Control Counts−Average Negative Control Counts)).
We have established robust in vitro cell-based HTRF assay for the activation and stimulation of CD4+ T lymphocytes to T helper 17 (Th17) cell differentiation and IL-17 production.

Row | Structure (SMILES) | IC50 [1] [nM] | IC50 [2] [nM] | IC50 [3] [nM]
1 | COc1cc2c(cc1N1CCOCC1)CC(Cc1ccc(SC(F)(F)F)cc1)C2=O (stereo not drawn) [compound 74, 6-methoxy-5-morpholino-2-(4-((trifluoromethyl)thio)benzyl)-2,3-dihydro-1H-inden-1-one] | > 10000 | > 10000 | > 1000
2 | COc1cc2c(cc1N1CCOCC1)CC(Cc1cc(C)n[nH]1)C2=O (stereo not drawn) [compound 95] | > 1000 | > 1000 | > 1000
3 | COc1cc2c(cc1N1CCNCC1)CC(Cc1ccc(SC(F)(F)F)cc1)C2=O (stereo not drawn) [compound 117] | < 500 | > 1000 | > 1000
4 | COc1cc2c(c(N3CCOCC3)c1OC)CC(Cc1ncccc1C(F)(F)F)C2=O (stereo not drawn) [compound 123, 5,6-dimethoxy-4-morpholino-2-((3-(trifluoromethyl)pyridin-2-yl)methyl)-2,3-dihydro-1H-inden-1-one] | > 1000 | > 1000 | > 1000
5 | COc1cc2c(c(N3CCN(C)CC3)c1OC)CC(Cc1ccc(SC(F)(F)F)cc1)C2=O (stereo not drawn) [compound 125, 5,6-dimethoxy-4-(4-methylpiperazin-1-yl)-2-(4-((trifluoromethyl)thio)benzyl)-2,3-dihydro-1H-inden-1-one] | > 1000 | > 1000 | > 1000
6 | COc1cc2c(c(N3CCN(C)CC3)c1OC)CC(Cc1ncccc1C(F)(F)F)C2=O (stereo not drawn) [compound 128, 5,6-dimethoxy-4-(4-methylpiperazin-1-yl)-2-((3-(trifluoromethyl)pyridin-2-yl)methyl)-2,3-dihydro-1H-inden-1-one] | > 1000 | > 1000 | > 1000
7 | COc1cc2c(c(N3CCC(C)CC3)c1OC)CC(Cc1ccc(SC(F)(F)F)cc1)C2=O (stereo not drawn) [compound 131, 5,6-dimethoxy-4-(4-methylpiperidin-1-yl)-2-(4-((trifluoromethyl)thio)benzyl)-2,3-dihydro-1H-inden-1-one] | > 1000 | > 1000 | > 1000
8 | COc1cc2c(c(N3CCC(C)CC3)c1OC)CC(Cc1ncccc1C(F)(F)F)C2=O (stereo not drawn) [compound 133, 5,6-dimethoxy-4-(4-methylpiperidin-1-yl)-2-((3-(trifluoromethyl)pyridin-2-yl)methyl)-2,3-dihydro-1H-inden-1-one] | > 1000 | > 1000 | > 1000
9 | COc1cc2c(cc1N1CCC(C)CC1)CC(Cc1ccc(SC(F)(F)F)cc1)C2=O (stereo not drawn) [compound 140] | < 500 | > 1000 | > 10000
10 | COc1cc2c(cc1NC1CCN(C)CC1)CC(Cc1ccc(SC(F)(F)F)cc1)C2=O (stereo not drawn) [compound 144] | > 1000 | > 1000 | > 1000
11 | COc1cc2c(cc1NC1CCN(C)CC1)CC(Cc1ncccc1C(F)(F)F)C2=O (stereo not drawn) [compound 146] | > 1000 | > 1000 | < 500
12 | COc1cc2c(cc1N1CCC(F)CC1)CC(Cc1ccc(SC(F)(F)F)cc1)C2=O (stereo not drawn) [compound 149, 5-(4-fluoropiperidin-1-yl)-6-methoxy-2-(4-((trifluoromethyl)thio)benzyl)-2,3-dihydro-1H-inden-1-one] | < 500 | > 10000 | > 1000
13 | COc1cc2c(cc1N1CCNCC1)CC(Cc1ncccc1C(F)(F)F)C2=O (stereo not drawn) [compound 164] | < 500 | > 1000 | < 500
14 | COc1ccc2c(c1OC)CC(Cc1ccc(SC(F)(F)F)cc1)C2=O (stereo not drawn) [compound 167] | > 1000 | > 1000 | < 500

Other lines, results leading:

Row | IC50 [1] [nM] | IC50 [2] [nM] | IC50 [3] [nM] | Structure (SMILES)
15 | > 1000 | > 1000 | > 1000 | COc1cc2c(cc1N1CCOCC1)CC(Cc1cc(C(F)(F)F)ccc1F)C2=O (stereo not drawn) [compound 77, 2-(2-fluoro-5-(trifluoromethyl)benzyl)-6-methoxy-5-morpholino-2,3-dihydro-1H-inden-1-one]
16 | > 1000 | > 1000 | > 1000 | COc1cc2c(cc1N1CCOCC1)CC(Cc1cccc(C(F)(F)F)c1F)C2=O (stereo not drawn) [compound 80]
17 | > 1000 | > 1000 | > 1000 | COc1cc2c(cc1N1CCOCC1)CC(Cc1ccc(C(F)(F)F)cc1)C2=O (stereo not drawn) [compound 86]
18 | > 1000 | > 1000 | < 500 | COc1cc2c(cc1N1CCOCC1)CC(Cc1ccc(Cl)c(C(F)(F)F)c1)C2=O (stereo not drawn) [compound 89]
19 | > 1000 | > 1000 | > 1000 | COc1cc2c(cc1N1CCOCC1)CC(Cc1ccc(C(F)(F)F)c(Cl)c1)C2=O (stereo not drawn) [compound 92]
20 | < 500 | > 1000 | > 1000 | COc1cc2c(cc1N1CCN(C)CC1)CC(Cc1cccc(C(F)(F)F)c1)C2=O (stereo not drawn) [compound 103, 6-methoxy-5-(4-methylpiperazin-1-yl)-2-(3-(trifluoromethyl)benzyl)-2,3-dihydro-1H-inden-1-one]
21 | < 500 | > 1000 | > 1000 | COc1cc2c(cc1N1CCN(C)CC1)CC(Cc1ccc(SC(F)(F)F)cc1)C2=O (stereo not drawn) [compound 106]
22 | < 500 | < 500 | > 1000 | COc1cc2c(cc1N1CCN(C)CC1)CC(Cc1cccc(C(F)(F)F)c1Cl)C2=O (stereo not drawn) [compound 110, 2-(2-chloro-3-(trifluoromethyl)benzyl)-6-methoxy-5-(4-methylpiperazin-1-yl)-2,3-dihydro-1H-inden-1-one]
23 | < 500 | < 500 | > 1000 | COc1cc2c(cc1N1CCN(C)CC1)CC(Cc1ncccc1C(F)(F)F)C2=O (stereo not drawn) [compound 113]
24 | > 1000 | > 1000 | < 500 | COc1cc2c(cc1N1CCC(C)CC1)CC(Cc1ncccc1C(F)(F)F)C2=O (stereo not drawn) [compound 142]
25 | > 1000 | > 1000 | > 1000 | COc1cc2c(cc1N1CCC(F)CC1)CC(Cc1ncccc1C(F)(F)F)C2=O (stereo not drawn) [compound 151, 5-(4-fluoropiperidin-1-yl)-6-methoxy-2-((3-(trifluoromethyl)pyridin-2-yl)methyl)-2,3-dihydro-1H-inden-1-one]
26 | > 1000 | > 1000 | < 500 | COc1cc2c(cc1N1CCC(C)CC1)CC(Cc1cccc(C(F)(F)F)c1)C2=O (stereo not drawn) [compound 154]
27 | < 500 | > 1000 | < 500 | COc1cc2c(cc1N1CCOCC1)CC(Cc1cc(C(F)(F)F)ccc1Cl)C2=O (stereo not drawn) [compound 158]
28 | > 1000 | < 500 | > 1000 | COc1cc2c(cc1N1CCN(C)CC1)CC(Cc1cc(C(F)(F)F)ccc1Cl)C2=O (stereo not drawn) [compound 161, 2-(2-chloro-5-(trifluoromethyl)benzyl)-6-methoxy-5-(4-methylpiperazin-1-yl)-2,3-dihydro-1H-inden-1-one]
